Experimental data: patent US20180303830A1, “CANCERS EXPRESSING CCR5 AND METHODS OF TREATMENT OF SAME” (THOMAS JEFFERSON UNIVERSITY, priority 2015, published 2018)

Experiments:
SUM159 cells [1] = experiment: Lung metastasis of SUM159 cells in SCID mice, photon flux (IVIS); type: in vivo
Description: The CCR5 antagonist, Maraviroc, was previously approved by the US Food and Drug Administration (FDA) for the use in treatment-nave adult […] with CCR5-trophic HIV. In order to determine the role endogenous CCR5 within SUM159 cells in lung metastasis, cells were introduced into SCID immune deficient mice, and tumor volume characterized using the IVIS system. […] (p<0.0001).
FIG. 7. Endogenous CCR5 promotes lung metastases in mice. FIG. 7A Representative timed photon emission of mice injected with SUM159 cells treated with either control or Maraviroc (at 14 mg/kg mouse body, time as shown in weeks). FIG. 7B Mean±SEM of photon flux for 6 animals in control group and 7 animals in maraviroc treatment group shown in 5 weeks. Maraviroc treatment reduces mean lung tumor volume by 98% which detected by photon flux ((3.01±1.16)×10^7 vs (1.05±0.44)×10^8, p=0.063 with Mann-Whitney Test).

[2] = tested on: basal-like breast cancer model; experiment: In vivo metastasis in a basal-like breast cancer model; set-up: species or system mice
Description: Chemokine CCL5 and its receptor CCR5 play a significant role in cancer progression and metastasis. Metastasis is the primary cause of death in patients with breast cancer. No effective treatments currently exist that are directed specifically to the metastatic process. There is evidence that the CCR5 receptor is expressed in a subset of human breast cancers. Importantly, embodiments disclosed herein support that CCR5 inhibitors previously developed and FDA approved for treatment of HIV, can effectively block breast cancer metastasis in preclinical models, thereby providing for an effective treatment of said metastatic breast cancers. The repurposing of drugs for alternative use in cancer metastasis, drugs that were previously approved by the FDA, may provide a more rapid solution for this deadly disease. Indeed, CCR5 inhibition by the FDA approved CCR5 antagonists Maraviroc and Vicriviroc reduced in vivo metastasis in a basal-like breast cancer model.
Indeed, in studies described herein, CCR5 is sufficient to induce invasiveness of breast cancer cells into matrigel, and metastasis to the lungs of mice. Accordingly, two distinct CCR5 inhibitors, maraviroc and vicriviroc, blocked CCR5 signaling and thereby block migration, invasion and metastasis in mice. […] The dose of CCR5 inhibitor used in these mouse models was the same as the dose used in patients for HIV.

FC-IBC-02 cells = experiment: Boyden chamber migration and invasion assay in FC-IBC-02 cells; type: cell-based, human; conditions: 100 μM, 48 hrs, compared to control; for invasion of FC-IBC-02 cells: matrigel-coated membrane; for migration of FC-IBC-02 cells: noncoated membrane
Description: The effects of CCR5 antagonists (Maraviroc and Vicriviroc) on cell migration and invasion in vitro were examined using matrigel-coated Boyden chamber assay in FC-IBC-02 cells, which are triple-negative, basal-like, cancer stem cell phenotype, and rapidly developed primary tumors and metastasis in vivo. Cells were treated by Maraviroc and Vicriviroc at 100 μM and support the conclusion that CCR5 is highly expressed in basal-like human IBC cells.
In FIG. 3, CCR5 antagonists Maraviroc and Vicriviroc suppress the migration and invasion of FC-IBC-02 cells. FIGS. 3A and 3B depict control and CCR5 antagonists treated cells at equal number were seeded onto the noncoated membrane (migration) and matrigel-coated membrane (invasion). After incubating 48 hrs. the cells crossed the membrane were stained with 0.05% crystal violet. FIGS. 3C and 3D, quantitation of 3A and 3B compared to controls was indicated.

SUM159 cells [3] = experiment: Phospho-γH2AX Western-blot of doxorubicin induced DNA damage in SUM159 cells; type: cell-based, human; conditions: for doxorubicin induced phospho-γH2AX (DNA damage): 100 μM, SUM159 cells, doxorubicin treatment; for effect on CCR5-mediated DNA repair (phospho-γH2AX western-blot and DNA repair reporter assay): breast cancer cells overexpressing CCR5, doxorubicin and γ-radiation induced DNA damage
Description: The chemokine receptor CCR5 is normally expressed on the surface of immune cells and served as HIV co-receptor. […] Compared with CCR5− cells, the CCR5+ cells were enriched with DNA damage/repair gene signature. […] Based on the existing theory that the resistance of cancer cells to the chemotherapy and radiation therapy caused by the existence of cancer stem cells, the inhibition of CCR5 by CCR5 antagonists will sensitize the response of breast cancer cells to chemotherapy and radiation therapy, therefore increase the efficiency of DNA damage inducing chemotherapy treatment for CCR5 expressing cancers.
FIG. 9. […] FIG. 9A The CCR5 stable-transfected and vector-control SUM159 cells were illuminated with 6.5 Gy of γ-radiation. The samples were collected at 0.5, 3 and 24 hours after y-radiation. The recruitment of phosphor-γH2AX and the reduction of abundance were faster in CCR5-transfected cells than vector-control cells. FIG. 9B The CCR5 stable-transfected and vector-control SUM159 cells were treated with doxorubicin. […] FIG. 9C CCR5 antagonist increased DNA damage in SUM159 cells. SUM159 cells treated with CCR5 antagonist, Maraviroc and Vicriviroc, both at 100 μM. DNA damage was induced by doxorubicin treatment. There are more doxorubicin induced phospho-γH2AX in Marviroc and Vicriviroc treated groups.

Structure (SMILES)	photon flux, Mean±SEM (SUM159 cells [1]; 14 mg/kg, 5 weeks, 7 animals, p=0.063 Mann-Whitney vs control)	reduction of mean lung tumor volume detected by photon flux (SUM159 cells [1]; 14 mg/kg, 5 weeks, vs control)	increase in breast cancer lung metastases (photon flux) in the control group compared to the treated group (SUM159 cells [1]; SUM159 cells in SCID mice, administered orally)	percentage of mice with detectable lung metastases (SUM159 cells [1]; SUM159 cells in SCID mice, administered orally, p<0.0001)	in vivo metastasis [2]	invasion of FC-IBC-02 cells (FC-IBC-02 cells)	migration of FC-IBC-02 cells (FC-IBC-02 cells)	doxorubicin induced phospho-γH2AX (DNA damage) (SUM159 cells [3])	effect on CCR5-mediated DNA repair (phospho-γH2AX western-blot and DNA repair reporter assay) (SUM159 cells [3])
Cc1nnc(C(C)C)n1[C@@H]1C[C@H]2CC[C@@H](C1)N2CC[C@H](NC(=O)C1CCC(F)(F)CC1)c1ccccc1 [Maraviroc, 4,4-difluoro-N-{(1S)-3-[3-(3-isopropyl-5-methyl-4H-1,2,4-triazol-4-yl)-8-azabicyclo[3.2.1]oct-8-yl]-1-phenylpropyl}cyclohexanecarboxamide]	(3.01±1.16)×10^7	98%	15 fold	significantly reduced	reduced	suppress	suppress	more	abolished these effects
COCC(c1ccc(C(F)(F)F)cc1)N1CCN(C2(C)CCN(C(=O)c3c(C)ncnc3C)CC2)C[C@@H]1C (stereo partly drawn) [Vicriviroc, 5-({4-[(3S)-4-{2-methoxy-1-[4-(trifluoromethyl)phenyl]ethyl}-3-methylpiperazin-1-yl]-4-methylpiperidin-1-yl}carbonyl)-4,6-dimethylpyrimidine]	–	–	–	–	reduced	suppress	suppress	more	abolished these effects
